US5750754A, “Heterocyclic compounds” (Zeneca Limited, priority 1993, dated 1998)
Counter-ions that a name gives are not always drawn.

Assays:
[1] = target: T1, human, citrated, platelet-rich plasma (Homo sapiens, UniProt P05106+P08514); test: Test (a): inhibition of ADP stimulated platelet aggregation (Born); type: cell-based; conditions: ADP induced aggregation of human platelet-rich plasma; for Kb: read-out: Test (a): pA2 value indicating potency of platelet aggregation inhibition (converted)
T1 construct: aggregating human, citrated, platelet-rich plasma; endogenous in cells; host or cells: human platelets in citrated platelet-rich plasma
T1 sequence (P08514 32-887 limits assumed): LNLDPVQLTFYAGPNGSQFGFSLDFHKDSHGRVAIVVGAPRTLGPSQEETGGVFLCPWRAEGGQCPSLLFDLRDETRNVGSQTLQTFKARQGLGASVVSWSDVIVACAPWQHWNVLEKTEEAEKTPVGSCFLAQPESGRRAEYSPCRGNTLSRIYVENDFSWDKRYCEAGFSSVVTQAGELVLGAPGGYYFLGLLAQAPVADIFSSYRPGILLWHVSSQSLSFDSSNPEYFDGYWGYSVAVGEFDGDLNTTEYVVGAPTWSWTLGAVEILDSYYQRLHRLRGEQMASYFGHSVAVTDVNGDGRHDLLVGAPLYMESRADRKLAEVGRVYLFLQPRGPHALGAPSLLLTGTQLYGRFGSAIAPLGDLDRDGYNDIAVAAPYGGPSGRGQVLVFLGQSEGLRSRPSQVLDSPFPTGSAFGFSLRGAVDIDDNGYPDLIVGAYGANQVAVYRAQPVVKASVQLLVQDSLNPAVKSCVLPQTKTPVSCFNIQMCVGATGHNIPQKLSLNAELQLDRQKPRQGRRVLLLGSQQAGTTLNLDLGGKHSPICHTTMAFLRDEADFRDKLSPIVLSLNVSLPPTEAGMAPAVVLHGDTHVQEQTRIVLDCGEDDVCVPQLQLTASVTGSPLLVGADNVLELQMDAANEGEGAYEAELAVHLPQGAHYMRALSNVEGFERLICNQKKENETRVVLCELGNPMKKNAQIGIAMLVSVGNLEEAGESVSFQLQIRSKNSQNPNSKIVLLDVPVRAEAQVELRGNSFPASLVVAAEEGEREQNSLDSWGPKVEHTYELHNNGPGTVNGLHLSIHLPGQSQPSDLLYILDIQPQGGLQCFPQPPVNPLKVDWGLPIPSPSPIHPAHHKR
T1 sequence (P08514 891-1039 limits assumed): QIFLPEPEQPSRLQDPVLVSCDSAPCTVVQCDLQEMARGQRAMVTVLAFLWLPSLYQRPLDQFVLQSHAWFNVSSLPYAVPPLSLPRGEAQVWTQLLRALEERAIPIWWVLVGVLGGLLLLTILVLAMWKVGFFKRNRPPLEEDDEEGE
T1 sequence (P05106 27-788): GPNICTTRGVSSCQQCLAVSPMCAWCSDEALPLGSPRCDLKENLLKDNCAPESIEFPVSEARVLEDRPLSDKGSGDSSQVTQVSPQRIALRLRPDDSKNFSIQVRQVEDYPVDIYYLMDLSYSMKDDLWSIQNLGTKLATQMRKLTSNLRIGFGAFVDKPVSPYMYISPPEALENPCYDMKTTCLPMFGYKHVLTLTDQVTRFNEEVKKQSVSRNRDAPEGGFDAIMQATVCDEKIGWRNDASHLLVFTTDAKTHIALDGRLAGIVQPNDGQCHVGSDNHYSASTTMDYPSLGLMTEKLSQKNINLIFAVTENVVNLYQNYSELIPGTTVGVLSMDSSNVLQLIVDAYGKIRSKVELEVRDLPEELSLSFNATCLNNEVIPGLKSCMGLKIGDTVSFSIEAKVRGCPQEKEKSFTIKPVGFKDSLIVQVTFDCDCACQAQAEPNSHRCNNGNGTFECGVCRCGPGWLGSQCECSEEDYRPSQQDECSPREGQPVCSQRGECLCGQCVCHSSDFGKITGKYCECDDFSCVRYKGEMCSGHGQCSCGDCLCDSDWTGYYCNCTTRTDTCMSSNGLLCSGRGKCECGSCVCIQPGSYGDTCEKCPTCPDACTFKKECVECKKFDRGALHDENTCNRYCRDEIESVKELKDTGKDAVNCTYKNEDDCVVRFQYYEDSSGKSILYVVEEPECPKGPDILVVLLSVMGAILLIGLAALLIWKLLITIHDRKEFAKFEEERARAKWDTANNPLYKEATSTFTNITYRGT
Procedure, shortened: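 pA2 calculated by comparing ADP EC50-type (50% response) values in presence and absence of compound, averaged across concentrations (generally 10-^5 M to 10-^10 M). Aggregation (Born) induced by ADP in citrated human platelet-rich plasma, giving dose-response curves.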

[2] = target: T2, purified human platelet fibrinogen receptor (GPIIb/IIIa) (Homo sapiens, UniProt P05106+P08514); test: Test (b): GPIIb/IIIa ELISA, inhibition of biotinylated fibrinogen binding; conditions: purified human platelet GPIIb/IIIa, ELISA; for IC50: read-out: Test (b): pIC50 (-log(IC50)), 50% inhibition of biotinylated fibrinogen binding to GPIIb/IIIa (converted)
T2 construct: is isolated from human platelet lysates; from tissue
T2 sequence (P08514 32-887 limits assumed): as the sequence (P08514 32-887 limits assumed) above
T2 sequence (P08514 891-1039 limits assumed): as the sequence (P08514 891-1039 limits assumed) above
T2 sequence (P05106 27-788): as the sequence (P05106 27-788) above
Procedure, shortened: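 Inhibition of biotinylated fibrinogen ([…]) binding to immobilised human platelet fibrinogen receptor, purified by KYGRGDS peptide affinity chromatography, was measured after 2 h at 30 °C. Readout: streptavidin–biotin-HRP colour with TMB at […]; value expressed as pIC50.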

Compound	Kb [1] [µM]	IC50 [2] [µM]	Test (a): pA2 value indicating potency of platelet aggregation inhibition [1]	Test (b): pIC50 (-log(IC50)), 50% inhibition of biotinylated fibrinogen binding to GPIIb/IIIa [2]
O=C(O)COc1cccc(C(=O)CN2CCN(c3ccncc3)CC2)c1 [Example 126, 3-[2-[4-(4-Pyridyl)piperazin-1-yl]acetyl]phenoxyacetic acid, dihydrochloride]	15.8	3.16	–	–
Cc1cc(C(=O)CN2CCN(c3ccncc3)CC2)ccc1OCC(=O)O [Example 127, 4-[2-[4-(4-Pyridyl)piperazin-1-yl]acetyl]-2-methyl-phenoxyacetic acid, dihydrochloride]	1.58	0.2	–	–
COc1cc(OCC(=O)O)ccc1C(=O)CN1CCN(c2ccncc2)CC1 [Example 128, 4-[2-[4-(4-Pyridyl)piperazin-1-yl]acetyl]-3-methoxy-phenoxyacetic acid, dihydrochloride]	0.158	0.501	–	–
O=C(O)COc1ccc(C(=O)CN2CCN(c3ccncc3)CC2)c(OCC(=O)O)c1 [Example 129, 2,2'-[4-[2-[4-(4-Pyridyl)piperazin-1-yl]acetyl]phenylene-1,3-dioxy]diaceticacid, dihydrochloride]	0.0126	0.316	–	–
CC(C)(C)c1cc(C(=O)CN2CCN(c3ccncc3)CC2)cc(C(C)(C)C)c1OCC(=O)O [Example 130, 4-[2-[4-(4-Pyridyl)piperazin-1-yl]acetyl]-2,6-di-tert-butylphenoxyacetic acid]	> 100	3.98	–	–
CCOC(=O)c1ccc(C(=O)CN2CCN(c3ccncc3)CC2)cc1 [Example 131, Ethyl 4-[2-[4-(4-pyridyl)piperazin-1-yl]acetyl]benzoate]	25.1	31.6	–	–
O=C(O)c1ccc(C(=O)CN2CCN(c3ccncc3)CC2)cc1 [Example 132, Sodium 4-[2-[4-(4-pyridyl)piperazin-1-yl]acetyl]benzoate]	63.1	31.6	–	–
COC(=O)COc1cc(OCC(=O)OC)cc(C(=O)CN2CCN(c3ccncc3)CC2)c1 [Example 133, Dimethyl 2,2'-[5-[2-[4-(4-pyridyl)piperazin-1-yl]acetyl]phenylene-1,3-dioxy]diacetate]	2	31.6	–	–
O=C(O)COc1cc(OCC(=O)O)cc(C(=O)CN2CCN(c3ccncc3)CC2)c1 [Example 134, Disodium 2,2'-[5-[2-[4-(4-pyridyl)piperazin-1-yl]acetyl]phenylene-1,3-dioxy]diacetate]	15.8	25.1	–	–
CC(C)(Oc1ccc(C(=O)CN2CCN(c3ccncc3)CC2)cc1)C(=O)O [Example 135, 2-[4-[2-[4-(4-Pyridyl)piperazin-1-yl]acetyl]phenoxy]isobutyric acid, dihydrobromide]	31.6	> 100	–	–
CCOC(=O)COc1ccc(C(=O)CN2CCN(c3ccncc3)CC2)cc1 [Example 136, Ethyl-4-[2-[4-(4-pyridyl)piperazin-1-yl]acetyl]phenoxyacetate]	0.126	2.51	–	–
CC(C)OC(=O)COc1ccc(C(=O)CN2CCN(c3ccncc3)CC2)cc1 [Example 137, iso-Propyl 4-[2-[4-(4-pyridyl)piperazin-1-yl]acetyl]phenoxyacetate]	0.0631	3.16	–	–
CC(C)(C)OC(=O)COc1ccc(C(=O)CN2CCN(c3ccncc3)CC2)cc1 [Example 138, tert-Butyl 4-[2-[4-(4-pyridyl)piperazin-1-yl]acetyl]-phenoxyacetate]	10	12.6	–	–
CC(C)(C)COC(=O)COc1ccc(C(=O)CN2CCN(c3ccncc3)CC2)cc1 [Example 139, Neopentyl 4-[2-[4-(4-pyridyl)piperazin-1-yl]acetyl]phenoxyacetate]	0.251	3.98	–	–
COC(=O)C(Oc1ccc(C(=O)CN2CCN(c3ccncc3)CC2)cc1)C(=O)OC [Example 140, Dimethyl 4-[2-[4-(4-pyridyl)piperazin-1-yl]acetyl]phenoxymalonate]	1.58	0.501	–	–
O=C(CN1CCN(c2ccncc2)CC1)c1ccc(OCc2nnn[nH]2)cc1 [Example 141, 5-[4-[2-[4-(4-Pyridyl)piperazin-1-yl]acetyl]phenoxymethyl]tetrazole]	31.6	31.6	–	–
NC(=O)COc1ccc(C(=O)CN2CCN(c3ccncc3)CC2)cc1 [Example 142, 4-[2-[4-(4-Pyridyl)piperazin-1-yl]acetyl]phenoxyacetamide]	5.01	5.01	–	–
CNC(=O)COc1ccc(C(=O)CN2CCN(c3ccncc3)CC2)cc1 [Example 143, 2-[4-[2-[4-(4-Pyridyl)piperazin-1-yl]acetyl]phenoxy]-N-methylacetamide]	10	31.6	–	–
COCCNC(=O)COc1ccc(C(=O)CN2CCN(c3ccncc3)CC2)cc1 [Example 144, 2-[4-[2-[4-(4-Pyridyl)piperazin-1-yl]acetyl]phenoxy]-N-(2-methoxymethyl)-acetamide]	5.01	5.01	–	–

Compound	Kb [1] [µM]	IC50 [2] [µM]	Test (a): pA2 value indicating potency of platelet aggregation inhibition [1]	Test (b): pIC50 (-log(IC50)), 50% inhibition of biotinylated fibrinogen binding to GPIIb/IIIa [2]
O=C(COc1ccc(C(=O)CN2CCN(c3ccncc3)CC2)cc1)NCc1ccccc1 [Example 145, 2-[4-[2-[4-(4-Pyridyl)piperazin-1-yl]acetyl]phenoxy]-N-(phenylmethyl)-acetamide]	3.16	5.01	–	–
COC(=O)CNC(=O)COc1ccc(C(=O)CN2CCN(c3ccncc3)CC2)cc1 [Example 146, Methyl N-[4-[2-[4-(4-pyridyl)piperazin-1-yl]acetyl]phenoxyacetyl]glycinate]	7.94	6.31	–	–
COC(=O)COc1ccc(CCN2CCN(c3ccncc3)CC2)cc1 [Example 147, Methyl 4-[2-[4-(4-pyridyl)piperazin-1-yl]ethyl]phenoxyacetate]	0.398	0.631	–	–
O=C(O)COc1ccc(CCN2CCN(c3ccncc3)CC2)cc1 [Example 148, 4-[2-[4-(4-Pyridyl)piperazin-1-yl]ethyl]phenoxyacetate acid dihydrochloride]	–	–	7.3	7.5
CC(C)(C)OC(=O)COc1ccc(CC(=O)N2CCN(c3ccncc3)CC2)cc1 [Example 149, Tertiary butyl 4-[2-[4-(4-pyridyl)piperazin-1-yl]carbonylmethyl]-phenoxyacetate]	20	20	–	–
O=C(O)COc1ccc(CC(=O)N2CCN(c3ccncc3)CC2)cc1 [Example 150, 4-[2-[4-(4-Pyridyl)piperazin-1-yl]carbonylmethyl]phenoxyacetic acid, dihydrochloride]	0.316	0.316	–	–
COC(=O)COc1ccc(C(=O)CN2CCN(c3ccnc(C)c3)CC2)cc1 [Example 151, Methyl 4-[2-[4-(2-methylpyrid-4-yl)piperazin-1-yl]acetyl]phenoxyacetate]	0.631	3.98	–	–
Cc1cc(N2CCN(CC(=O)c3ccc(OCC(=O)O)cc3)CC2)ccn1 [Example 152, 4-[2-[4-(2-Methylpyrid-4-yl)piperazin-1-yl]acetyl]phenoxyacetic acid, dihydrobromide]	0.1	0.1	–	–
COC(=O)COc1ccc(C(=O)CN2CCN(c3cc(C)nc(C)c3)CC2)cc1 [Example 153, Methyl [2-[4-(2,6-dimethylpyrid-4-yl)piperazin-1-yl]acetyl]phenoxyacetate, hydrobromide]	15.8	50.1	–	–
Cc1cc(N2CCN(CC(=O)c3ccc(OCC(=O)O)cc3)CC2)cc(C)n1 [Example 154, 4-[2-[4-(2,6-Dimethylpyrid-4-yl)piperazin-1-yl]actyl]phenoxyacetic acid, dihydrobromide]	10	2.51	–	–
COC(=O)COc1ccc(OC2CCN(c3ccncc3)CC2)cc1 [Example 155, Methyl 4-[1-(4-pyridyl)piperidin-4-yl]oxyphenoxyacetate]	3.16	> 100	–	–
O=C(O)COc1ccc(OC2CCN(c3ccncc3)CC2)cc1 [Example 156, 4-[1-(4-Pyridyl)piperidin-4-yl]oxyphenoxyacetic acid]	20	1.58	–	–
COC(=O)COc1ccc(OCC2CCN(c3ccncc3)CC2)cc1 [Example 157, Methyl 4-[1-(4-pyridyl)piperidin-4-yl]methoxyphenoxyacetate]	0.316	0.0794	–	–
O=C(O)COc1ccc(OCC2CCN(c3ccncc3)CC2)cc1 [Example 158, 4-[1-(4-Pyridyl)piperidin-4-yl]methoxyphenoxyacetic acid.]	0.631	0.1	–	–
COC(=O)COc1ccc(OCCC2CCN(c3ccncc3)CC2)cc1 [Example 159, Methyl 4-[2-[1-(4-pyridyl)piperidin-4-yl]ethoxy]phenoxyacetate]	0.501	2	–	–
O=C(O)COc1ccc(OCCC2CCN(c3ccncc3)CC2)cc1 [Example 160, 4-[2-[1-(4-Pyridyl)piperidin-4-yl]ethoxy]phenoxyacetic acid]	0.794	0.0158	–	–
COC(=O)CCc1ccc(OCC2CCN(c3ccncc3)CC2)cc1 [Example 161, Methyl 3-[4-[1-(4-pyridyl)piperidin-4-yl]methoxyphenyl]propionate]	12.6	50.1	–	–
O=C(O)CCc1ccc(OCC2CCN(c3ccncc3)CC2)cc1 [Example 162, 3-[4-[1-(4-Pyridyl)piperidin-4-yl]methoxyphenyl]propionic acid]	20	0.631	–	–
